# According to patent US7868006B2, “Heterocyclic substituted piperazines with CXCR3 antagonist activity” (Schering Corporation, priority 2005, dated 2011):
# Biological target: T1, human CXCR3 (N-delta 4) (Homo sapiens, UniProt P49682)
# T1 construct: CD8 leader (N); Flag tag (N); expressed in transfected cells; host or cells: mouse pro-B Ba/F3 cells, stably transfected with pME18Sneo-hCXCR3 (N-delta 4); membrane preparation
# T1 sequence (P49682 5-368 limits assumed): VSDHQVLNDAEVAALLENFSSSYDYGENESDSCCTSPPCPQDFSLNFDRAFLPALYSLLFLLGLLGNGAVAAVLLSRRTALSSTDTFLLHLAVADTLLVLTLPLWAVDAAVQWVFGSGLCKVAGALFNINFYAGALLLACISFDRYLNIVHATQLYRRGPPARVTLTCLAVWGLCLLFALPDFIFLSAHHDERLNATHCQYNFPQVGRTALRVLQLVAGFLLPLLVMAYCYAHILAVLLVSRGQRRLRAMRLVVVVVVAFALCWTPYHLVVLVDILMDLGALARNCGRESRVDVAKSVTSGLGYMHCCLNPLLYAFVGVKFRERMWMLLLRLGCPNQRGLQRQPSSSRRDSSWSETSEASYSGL
# Experiment: Human CXCR3 (N-delta 4) Scintillation Proximity Assay (SPA), [125I] IP-10 binding
# Settings: IC50 rating; Ba/F3-hCXCR3 (N-delta 4) membranes, 25 pM [125I] IP-10; read-out: IC50
# Source text: The inventive compounds can readily be evaluated to determine activity at The CXCR3 receptors by known methods, such as, for example, Development of Human CXCR3 (N-delta 4) Binding Assay.
# Cloning and Expression of Human CXCR3 (N-delta 4):
# The DNA encoding human CXCR3 was cloned by PCR using human genomic DNA (Promega, Madison, Wis.) as a template. The PCR primers were designed based on the published sequence of human orphan receptor GPR9 (1) with incorporated restriction sites, a Kozak consensus sequence, CD8 leader and Flag tag. The PCR product was subcloned into the mammalian expression vector pME18Sneo, a derivative of the SR-alpha expression vector (designated as pME18Sneo-hCXCR3 (N-delta 4).
# IL-3-dependent mouse pro-B cells Ba/F3 were transfected by electroporation in 0.4 ml Dulbecco's PBS containing 4×10^6 cells with 20 μg of pME18Sneo-hCXCR3 (N-delta 4) plasmid DNA. Cells were pulsed at 400 Volts, 100 OHMs, 960 μFd. The transfected cells were under selection with 1 mg/ml G418 (Life Technologies, Gaithersburg, Md.). G418-resistant Ba/F3 clones were screened for CXCR3 expression by specific binding of [^125I] IP-10 (NEN Life Science Products, Boston, Mass.).
# Preparation of Ba/F3-hCXCR3 (N-delta 4) Membranes:
# Ba/F3 cells expressing human CXCR3 (N-delta 4) were pelleted and resuspended in the lysis buffer containing 10 mM HEPES, pH 7.5 and Complete® protease inhibitors (1 tablet per 100 ml) (Boehringer Mannheim, Indianapolis, Ind.) at a cell density of 20×10^6 cells per ml. After 5 minutes incubation on ice, cells were transferred to 4639 cell disruption bomb (Parr Instrument, Moline, Ill.) and applied with 1,500 psi of nitrogen for 30 minutes on ice. Large cellular debris was removed by centrifugation at 1,000×g. Cell membrane in the supernatant was sedimented at 100,000×g. The membrane was resuspended in the lysis buffer supplemented with 10% sucrose and stored at −80° C. Total protein concentration of the membrane was determined by BCA method from Pierce (Rockford, Ill.).
# Human CXCR3 (N-delta 4) Scintillation Proximity Assay (SPA):
# For each assay point, 2 μg of membrane was preincubated for 1 hr with 300 μg wheat germ agglutinin (WGA) coated SPA beads (Amersham, Arlington Heights, Ill.) in the binding buffer (50 mM HEPES, 1 mM CaCl2, 5 mM MgCl2, 125 mM NaCl, 0.002% NaN3, 1.0% BSA) at room temperature. The beads were spun down, washed once, resuspended in the binding buffer and transferred to a 96-well Isoplate (Wallac, Gaithersburg, Md.). 25 pM of [^125I] IP-10 with tested compounds in a series of titration were added to start the reaction. After 3 hr reaction at room temperature, the amount of [^125I] IP-10 bound to the SPA beads was determined with a Wallac 1450 Microbeta counter.
# The Ki values for the various example compounds of the present invention are given in the afore-mentioned Table 1. From these values, it would be apparent to the skilled artisan that the compounds of the invention have excellent utility CXCR3 antagonists.
row,SMILES,IC50 [nM]
1,CC[C@H]1CN(c2ncc(-c3nnc[nH]3)nc2C)CCN1C1CCN(Cc2ccc(F)c(F)c2)CC1 [Compound 109],< 25
2,CC[C@H]1CN(c2nc(N)c(-c3nnc(N)o3)nc2Cl)CCN1C1CCN(Cc2ccc(C#N)cc2)CC1 [Compound 9],< 25
3,CC[C@H]1CN(c2nc(N)c(-c3nnc(CO)o3)nc2Cl)CCN1C1CCN([C@H](C(=O)OC)c2ccc(Cl)cc2)CC1 [Compound 85],> 100
4,CC[C@H]1CN(c2nc(N)c(-c3nnc(C(N)=O)o3)nc2Cl)CCN1C1CCN(C(=O)c2ccc(Cl)nc2N)CC1 [Compound 40],< 25
5,CC[C@H]1CN(c2nc(N)c(-c3nnc(CO)o3)nc2Cl)CCN1C1CCN(Cc2ccc(Cl)cc2C#N)CC1 [Compound 45],< 25
6,CCNc1nnc(-c2cnc(N3CCN(C4CCN(CCC(=O)c5ccc(Cl)cc5)CC4)[C@@H](CC)C3)c(C)n2)o1 [Compound 169],< 25
7,CC[C@H]1CN(c2ncc(-c3nc[nH]n3)nc2C)CCN1C1CCN(C(=O)c2ccc(F)c(F)c2)CC1 [Compound 113],< 25
8,CC[C@H]1CN(c2nc(N)c(-c3nnc(C)o3)nc2Cl)CCN1C1CCN(C(=O)c2ccc(Cl)nc2N)CC1 [Compound 23],< 25
9,CCNc1nnc(-c2cnc(N3CCN(C4CCN(C(=O)c5ccc(C(F)(F)F)nc5N)CC4)[C@@H](CC)C3)c(C)n2)o1 [Compound 184],< 25
10,CC[C@H]1CN(c2ncc(-c3nnc(C)o3)nc2C)CCN1C1CCN(C(=O)c2ccc(Cl)nc2N)CC1 [Compound 35],< 25
11,CCCNc1nnc(-c2nc(Cl)c(N3CCN(C4CCN(C(=O)c5ccc(Cl)nc5N)CC4)[C@@H](CC)C3)nc2N)o1 [Compound 12],< 25
12,CC[C@H]1CN(c2ncc(-c3nc[nH]n3)nc2C)[C@H](C)CN1C1CCN(C(CO)c2ccc(Cl)cc2)CC1 (some centres unmarked) [Compound 133],< 25
13,CC[C@H]1CN(c2ncc(-c3nc[nH]n3)nc2C)CCN1C1CCN(C(=O)c2cc(F)c(F)cc2Cl)CC1 [Compound 138],25 to 100
14,CC[C@H]1CN(c2ncc(-c3nnc(N(CC)S(=O)(=O)c4ccc(C)cc4)o3)nc2C)C(C)CN1C1CCN(C(=O)c2ccc(Cl)cc2)CC1 (some centres unmarked) [Compound 196],25 to 100
15,CC[C@H]1CN(c2nc(F)c(-c3nnc(C)o3)nc2Cl)CCN1C1CCN(C(=O)c2ccc(Cl)cc2)CC1 [Compound 54],< 25
16,CC[C@H]1CN(c2nc(N)c(-c3nnc(CO)o3)nc2Cl)CCN1C1CCN([C@@H](C(=O)OC)c2ccc(Cl)cc2)CC1 [Compound 47],< 25
17,CC[C@H]1CN(c2ncc(-c3ncc[nH]3)nc2C)CCN1C1CCN(C(=O)c2ccc(Cl)cc2)CC1 [Compound 111],< 25
18,CC[C@H]1CN(c2nc(N)c(-c3nnc(C)o3)nc2Cl)CCN1C1CCN(Cc2ccc(Cl)cc2-c2nnn[nH]2)CC1 [Compound 55],< 25

# Other lines, results leading:
row,IC50 [nM],SMILES
1,< 25,CCNc1nnc(-c2cnc(N3CCN(C4CCN([C@@H](CO)c5ccc(Cl)cc5)CC4)[C@@H](CC)C3)c(C)n2)o1 [Compound 162]
2,< 25,CC[C@H]1CN(c2ncc(-c3nnc(N)o3)nc2C)[C@H](C)CN1C1CCN([C@H](C)c2ccc(OC(F)(F)F)cc2)CC1 [Compound 178]
3,< 25,CC[C@H]1CN(c2nc(N)c(-c3nnc(C)o3)nc2Cl)CCN1C1CCN(C(=O)c2ccc(Cl)cc2O)CC1 [Compound 67]
4,25 to 100,CC[C@H]1CN(c2ncc(-c3nnc(C)o3)nc2F)CCN1C1CCN(C(=O)c2ccc(Cl)nc2N)CC1 [Compound 137]
5,> 100,CC[C@H]1CN(c2nc(N)c(-c3nnc(OC)o3)nc2Cl)CCN1C1CCN(C(=O)c2ccc(Cl)nc2N)CC1 [Compound 79]
6,< 25,CCNc1nnc(-c2nc(C)c(N3CCN(C4CCN(C(=O)c5ccc(Cl)cc5)CC4)[C@@H](CC)C3)nc2C)o1 [Compound 157]
7,< 25,CC[C@H]1CN(c2ncc(C3=NCCN3)nc2Cl)CCN1C1CCN(C(=O)c2ccc(Cl)nc2N)CC1 [Compound 27]
8,< 25,CCOC(=O)CNc1nnc(-c2nc(C)c(N3CCN(C4CCN(C(=O)c5ccc(Cl)nc5N)CC4)[C@@H](CC)C3)nc2N)o1 [Compound 192]
